Data from the NIST ThermoML archive (doi:10.1016/j.jct.2004.12.014).

What was measured:
[1] = excess molar enthalpy (molar enthalpy of mixing); xn = mol fraction of the nth substance listed; conditions: 318.15 K, 101 kPa, Liquid
[2] = xn = mol fraction of the nth substance listed; conditions: 318.15 K, 101 kPa, Liquid

CCCCCCCCCCCCCCCCC [heptadecane] + CCOC(=O)CC
Conditions	excess molar enthalpy [kcal/mol]	excess molar volume [m3/mol]
[1], x2 = 0.1049	0.125	–
[1], x2 = 0.213	0.232	–
[1], x2 = 0.3031	0.311	–
[1], x2 = 0.3846	0.366	–
[1], x2 = 0.4607	0.402	–
[1], x2 = 0.5315	0.42	–
[1], x2 = 0.5885	0.421	–
[1], x2 = 0.6272	0.413	–
[1], x2 = 0.6888	0.386	–
[1], x2 = 0.7229	0.364	–
[1], x2 = 0.7635	0.334	–
[1], x2 = 0.8055	0.296	–
[1], x2 = 0.8479	0.254	–
[1], x2 = 0.8897	0.202	–
[1], x2 = 0.9313	0.138	–
[1], x2 = 0.9727	0.0626	–
[2], x2 = 0.066	–	2.51e-07
[2], x2 = 0.1449	–	5.19e-07
[2], x2 = 0.2675	–	8.82e-07
[2], x2 = 0.3677	–	1.105e-06
[2], x2 = 0.4535	–	1.215e-06
[2], x2 = 0.5272	–	1.268e-06
[2], x2 = 0.5954	–	1.278e-06
[2], x2 = 0.6524	–	1.237e-06
[2], x2 = 0.7503	–	1.094e-06
[2], x2 = 0.7915	–	9.93e-07
[2], x2 = 0.8304	–	8.71e-07
[2], x2 = 0.8626	–	7.59e-07
[2], x2 = 0.8973	–	6.31e-07
[2], x2 = 0.9257	–	4.92e-07
[2], x2 = 0.9523	–	3.54e-07
[2], x2 = 0.9771	–	1.83e-07

CCC(=O)OC [methyl propanoate] + CCCCCCC
Conditions	excess molar enthalpy [kcal/mol]	excess molar volume [m3/mol]
[1], x1 = 0.0703	0.0855	–
[1], x1 = 0.154	0.176	–
[1], x1 = 0.2369	0.249	–
[1], x1 = 0.3018	0.296	–
[1], x1 = 0.3693	0.331	–
[1], x1 = 0.4258	0.35	–
[1], x1 = 0.4809	0.362	–
[1], x1 = 0.5084	0.363	–
[1], x1 = 0.5258	0.363	–
[1], x1 = 0.5447	0.361	–
[1], x1 = 0.586	0.353	–
[1], x1 = 0.6301	0.34	–
[1], x1 = 0.6752	0.32	–
[1], x1 = 0.7232	0.295	–
[1], x1 = 0.7744	0.259	–
[1], x1 = 0.8241	0.215	–
[1], x1 = 0.8704	0.168	–
[1], x1 = 0.9177	0.112	–
[1], x1 = 0.9639	0.0537	–
[2], x1 = 0.0406	–	2.5e-07
[2], x1 = 0.0927	–	5.08e-07
[2], x1 = 0.1719	–	8.36e-07
[2], x1 = 0.248	–	1.063e-06
[2], x1 = 0.3249	–	1.222e-06
[2], x1 = 0.3904	–	1.27e-06
[2], x1 = 0.4571	–	1.288e-06
[2], x1 = 0.5214	–	1.254e-06
[2], x1 = 0.5761	–	1.192e-06
[2], x1 = 0.6333	–	1.105e-06
[2], x1 = 0.6853	–	1.008e-06
[2], x1 = 0.7372	–	9.01e-07
[2], x1 = 0.7844	–	7.75e-07
[2], x1 = 0.8305	–	6.37e-07
[2], x1 = 0.8748	–	4.85e-07
[2], x1 = 0.9184	–	3.36e-07
[2], x1 = 0.9596	–	1.83e-07

CCC(=O)OC [methyl propanoate] + CCCCCCCCC
Conditions	excess molar enthalpy [kcal/mol]	excess molar volume [m3/mol]
[1], x1 = 0.084	0.111	–
[1], x1 = 0.1528	0.19	–
[1], x1 = 0.2279	0.261	–
[1], x1 = 0.2957	0.313	–
[1], x1 = 0.3549	0.35	–
[1], x1 = 0.4111	0.375	–
[1], x1 = 0.4611	0.391	–
[1], x1 = 0.5059	0.4	–
[1], x1 = 0.546	0.402	–
[1], x1 = 0.5832	0.399	–
[1], x1 = 0.6314	0.386	–
[1], x1 = 0.6645	0.371	–
[1], x1 = 0.7099	0.345	–
[1], x1 = 0.7579	0.311	–
[1], x1 = 0.808	0.268	–
[1], x1 = 0.8604	0.212	–
[1], x1 = 0.9122	0.148	–
[1], x1 = 0.9599	0.0769	–
[2], x1 = 0.047	–	2.8e-07
[2], x1 = 0.111	–	5.7e-07
[2], x1 = 0.2022	–	9.27e-07
[2], x1 = 0.2873	–	1.164e-06
[2], x1 = 0.3671	–	1.333e-06
[2], x1 = 0.4381	–	1.406e-06
[2], x1 = 0.5037	–	1.425e-06
[2], x1 = 0.5664	–	1.423e-06
[2], x1 = 0.6242	–	1.359e-06
[2], x1 = 0.6768	–	1.278e-06
[2], x1 = 0.7271	–	1.166e-06
[2], x1 = 0.7724	–	1.037e-06
[2], x1 = 0.817	–	8.78e-07
[2], x1 = 0.856	–	7.5e-07
[2], x1 = 0.896	–	5.89e-07
[2], x1 = 0.9315	–	3.93e-07
[2], x1 = 0.9661	–	1.98e-07
